A short description of series [1]: Solubility of potassium naphthalenecarboxylates in pure water and in aqueous K4 XA solution (Table 1). It counts as physicochemical. As to conditions: 30% aqueous k4xa. The source says: Generally, alkali metal naphthalenecarboxylates, taken individually, are easily soluble in a sufficient amount of water.
The nature of series [2]: Solubility of potassium salts in water/methanol mixtures at 30°C (Table 4). It counts as physicochemical.
The next series can be described thus: Solubility in words. It is filed as physicochemical. To be noted: for Solubility in aqueous medium: aqueous medium (acid precipitation / disproportionation).
The conditions of series [3]: 30°C.
Series [4] in a line: Solubility of K4 XA in aqueous potassium carbonate (Table 3). It counts as physicochemical. As to conditions: water.
The next series can be described thus: Thermal stability. It counts as physicochemical.
Series [5] can be described thus: Stability in water / acid. It is filed as physicochemical.

The source of these data is patent US3954840A, “1,3,5,7-Naphthalenetetracarboxylic acids and process for preparation thereof” (Teijin Ltd., priority 1973, dated 1976).

Structures are written as SMILES. Values joined by “and” are separate entries in the source; they are usually repeats but may differ in a detail not shown here. Equal values may be shown once. “Also recorded” adds a separate entry of the source. Read-outs that look alike come from different tables or passages of the source.

`O=C([O-])c1ccc2cc(C(=O)[O-])ccc2c1.[K+].[K+]`: the “Solubility in 100 g of a 30% by weight aqueous solution of tetrapotassium 1,3,5,7-naphthalenetetracarboxylate” value in series [1] is 1.0 g. Moreover, the “Change of solubility with increasing methanol concentration” value in series [2] is reported as “decrease with higher methanol concentrations but not to such a great extent as in the case of K4 XA”. Also, the “Amount of solute dissolved in 100 g of a mixture of water and methanol” value (from here on “Amount of solute dissolved”) in series [2] (30°C, methanol 40 wt. %) came out at 8.5 g; in series [2] (30°C, methanol 60 wt. %), 3.6 g; in series [2] (30°C, methanol 80 wt. %), 0.88 g; in series [2] (30°C, methanol 100 wt. %), 0.17 g; in series [2] (water) it was 32 g.
Turning to `O=C(O)c1cc(C(=O)O)c2cc(C(=O)O)cc(C(=O)[O-])c2c1.[K+]`, the Solubility in water entry in the series “Solubility in words” is given as “difficultly soluble”.
Take `O=C([O-])c1ccc2ccccc2c1.[K+]`: the “Solubility in 100 g of a 30% by weight aqueous solution of tetrapotassium 1,3,5,7-naphthalenetetracarboxylate” value in series [1] is listed as 0.3 g. For the same molecule, in series [2], the “Change of solubility with increasing methanol concentration” value is reported as “decrease with higher methanol concentrations but not to such a great extent as in the case of K4 XA”. The “Amount of solute dissolved” value worked out at 45 g in series [2] (30°C, methanol 40 wt. %); 30 g in series [2] (30°C, methanol 60 wt. %); 19 g in series [2] (30°C, methanol 80 wt. %); 9.3 g in series [2] (30°C, methanol 100 wt. %); 80 g in series [2] (water).
Take `O=C([O-])c1cc(C(=O)[O-])c2cc(C(=O)[O-])cc(C(=O)[O-])c2c1.[K+].[K+].[K+].[K+]`: the “Amount of tetrapotassium salt dissolved in 100 g of a mixture of water and methanol” value in series [3] (methanol 40%, K2CO3 0%) is reported as 9.0 g; in series [3] (methanol 40%, K2CO3 10%), 3.8 g; in series [3] (methanol 40%, K2CO3 20%), 1.0 g; in series [3] (methanol 40%, K2CO3 30%), 0.2 g; in series [3] (methanol 60%, K2CO3 0%), 1.7 g; in series [3] (methanol 60%, K2CO3 10%) it was 0.1 g. Besides, the “Amount of tetrapotassium salt dissolved in 100 g of a mixture of water and methanol” value is given as 0.13 g in series [3] (methanol 80%, K2CO3 0%) and under 0.01 g in series [3] (methanol 80%, K2CO3 3%). In series [2], the “Change of solubility with increasing methanol concentration” value is “decreases abruptly”. The Solubility in methanol entry in “Solubility in words” is recorded as “slightly soluble”. The Solubility in water entry in the series “Solubility in words” is recorded as “very high; also recorded: Readily soluble”. Further, in series [4], the “Solubility (grams of the potassium salt dissolved in 100 g of solvent)” value is 57.0 g and 48.8 g. For the same molecule, the Thermal stability entry in the series “Thermal stability” is listed as “almost no change occurred, but the product was stable”.
Consider `O=C([O-])c1cc(C(=O)[O-])c2cc(C(=O)O)cc(C(=O)[O-])c2c1.[K+].[K+].[K+]`, for which the Stability in water entry in series [5] is on record as “Easily decomposable”.
For `O=C(O)c1cc(C(=O)O)c2cc(C(=O)O)cc(C(=O)O)c2c1` [1,3,5,7-naphthalenetetracarboxylic acid], the Solubility in alcohols entry in the series “Solubility in words” (alcohols) is given as “Insoluble”. In the series “Solubility in words”, the “Solubility in aqueous medium” value was “very low solubility”, the Solubility in benzene entry is “Insoluble” and the “Solubility in ether(s)” value is listed as “Insoluble”. Also, in the series “Solubility in words” (listed as H4 XA), the “Solubility in aqueous medium” value is recorded as “almost insoluble”. In addition, in “Solubility in words” (various solvents), the “Solubility in various solvents” value was “very low solubility”. In addition, in the series “Solubility in words” (water), the Solubility in water entry is “Insoluble”. Also, the Thermal stability result in “Thermal stability” (high temperatures (melting point above 300°C)) was “decomposed”.
Consider `O.O.O=C([O-])c1cc(C(=O)[O-])c2cc(C(=O)[O-])cc(C(=O)[O-])c2c1.[K+].[K+].[K+].[K+]` [Tetrapotassium 1,3,5,7-naphthalenetetracarboxylate dihydrate], for which the “Amount of solute dissolved” value is listed as 45 g in series [2] (30°C, methanol 0 wt. %); 9 g in series [2] (30°C, methanol 40 wt. %); 1.7 g in series [2] (30°C, methanol 60 wt. %); 0.13 g in series [2] (30°C, methanol 80 wt. %); 0.30 g in series [2] (30°C, methanol 100 wt. %).
Regarding `CCCCOC(=O)c1cc(C(=O)OCCCC)c2cc(C(=O)OCCCC)cc(C(=O)OCCCC)c2c1` [tetra-n-butyl 1,3,5,7-naphthalenetetracarboxylate], in “Solubility in words”, the Solubility in chloroform result is “Readily soluble” and the “Solubility in ether(s)” value was “Readily soluble”. For the same molecule, the “Solubility in hot ethanol” value in “Solubility in words” (hot ethanol) was “Readily soluble”.
With `CCCCCCCCCCCCOC(=O)c1cc(C(=O)OCCCCCCCCCCCC)c2cc(C(=O)OCCCCCCCCCCCC)cc(C(=O)OCCCCCCCCCCCC)c2c1` [tetra-n-dodecyl 1,3,5,7-naphthalenetetracarboxylate], the Solubility in acetone entry in the series “Solubility in words” (acetone) was “Readily soluble”. Besides, in the series “Solubility in words”, the Solubility in benzene result is reported as “Readily soluble”, the Solubility in chloroform entry is “Readily soluble” and the “Solubility in ether(s)” value is reported as “Readily soluble”.
As for `O=C([O-])c1cc(C(=O)[O-])c2cc(C(=O)[O-])cc(C(=O)[O-])c2c1.[Na+].[Na+].[Na+].[Na+]` [tetrasodium 1,3,5,7-naphthalenetetracarboxylate], the Thermal stability entry in “Thermal stability” (around 400°C) is “stable”.
